In patent US20090227546A1, “PHARMACEUTICAL COMPOSITION OF DROSPIRENONE AND ETHYNYLESTRADIOL” (Laboratories Liconse, S.A., priority 2004, published 2009):

How the values were obtained:
[1] = Dissolution profile of crystalline drospirenone tablets in acidic medium (USP 27 apparatus 2); format: physicochemical; conditions: HCl 0.1 N, regardless of the size of the particle, FIG. 16
Method: The dissolution profiles were obtained from tablets containing drospirenone in a crystalline state with different sized particles, using a dissolution apparatus designated in the U.S. Pharmacopoeia, Edition 27, apparatus 2, at 50 rpm and 900 ml of lauryl sulfate 0.07% in a strongly acidic medium, HCl 0.1 N, thermostatized at 37° C.

[2] = Dissolution of drospirenone in methanol as granulation solvent; format: physicochemical
Method: About 16.00 ml of the dichloromethane/methanol solution at about a 6:1 ratio were placed in a stainless steel stirring apparatus. Next, about 0.0306 g of ethynylestradiol, non-micronized with a particle size no less than about 50 μm (addition of an excess of about 2% was foreseen to make up for losses during the process), were added under constant stirring. The mixture was shaken/stirred until completely dissolved. About 3.0600 g of drospirenone, non-micronized with a particle size no less than about 50 μm (addition of an excess of about 2% was foreseen to make up for losses during the process), were added under constant stirring until completely dissolved. Once dissolved, about 3.4000 g of polyvinylpyrrolidone K-30 were added with stirring until completely dissolved.
Only about 16 ml methanol was used in this example, which compares to substantially the same volume as the about 16 ml methylene chloride/methanol (about 6:1) used in example 1. […] Recall that in example 1 drospirenone was completely dissolved. Again, the process was conducted in accordance with example 1, including the step of “Granulation—Drying” where a planetary-type mixer was used and the mixture kneaded. The name of the final batch granulated: LPDIMet-16 ml.
In an extra experiment related to this Example 2, in the step “Dissolution of the active ingredients and binder” methanol was added until complete dissolution. […]

- stability of drospirenone in an acidic medium [1]: instability
- amount of methanol required for complete dissolution ([2]; about 3.06 g drospirenone and about 0.0306 g ethynylestradiol): about 154.3 ml
- dissolution of drospirenone in about 16 ml methanol ([2]; about 3.06 g drospirenone, methanol only): not enough for the total dissolution
SMILES: C[C@]12CCC(=O)C=C1[C@@H]1C[C@@H]1[C@H]1[C@@H]3[C@@H]4C[C@@H]4[C@@]4(CCC(=O)O4)[C@@]3(C)CC[C@@H]12 [drospirenone, 6β,7β,15β,16β-dimethylene-3-oxo-17α-pregn-4-ene-21,17-carbolactone]
